Experimental findings from ChEMBL document CHEMBL1201862, “PubChem BioAssay data set” (2004) are described below.

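Briefly, cells in 96-well plates were exposed to five compound concentrations for 48 h, and endpoints were estimated by linear interpolation. The concentration for 50% growth inhibition is given as GI50.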 Active and inactive are the calls of the source. Rule as the data show it: active = GI50 up to about 1.1 µM and inactive = higher. Where a SMILES comes first, the peptide text is derived from it. [ ]: non-standard residue; d: D form. The star is where a group is joined. Cbz = O=C(OCc1ccccc1)*; Aib = CC(C)(N)C(=O)O; OBn = c1ccc(CO*)cc1

Among the test systems are 786-0; CAKI-1; CCRF-CEM; COLO 205; DU-145; HCT-15; HL-60; KM12; MDA-MB-435; Malme-3M; NCI-H23; NCI/ADR-RES; OVCAR-3; RXF 393; SF-268; SF-295; SW-620; U-251; UO-31; A498.
What all share (test): NCI tumour cell line growth inhibition, 48 h

With `O=C(c1ccc(Cl)cc1)C(O)c1ccc(Cl)cc1` (stereo not given), the GI50 in the assay with 786-0 is > 100 µM (inactive); in the assay on CAKI-1 it was > 100 µM (inactive); in the assay with CCRF-CEM, > 100 µM (inactive); with COLO 205, > 100 µM (inactive); in the assay on DU-145, 92 µM (inactive); with HCT-15, > 100 µM. For the same compound, the GI50 in the assay with HL-60 is 32.5 µM (inactive); in the assay on KM12, 41.6 µM (inactive); in the assay with MDA-MB-435, > 100 µM (inactive); in the assay with Malme-3M, 40.3 µM (inactive); with NCI-H23, 70.3 µM (inactive); in the assay on NCI/ADR-RES, > 100 µM (inactive). For the same compound, the GI50 in the assay with OVCAR-3 was 43.8 µM (inactive); in the assay with RXF 393, > 100 µM (inactive); in the assay on SF-268, > 100 µM (inactive); with SF-295 it was > 100 µM (inactive); in the assay on SW-620 it was > 100 µM (inactive); in the assay with U-251 it was > 100 µM (inactive). The GI50 in the assay with UO-31 is > 100 µM (inactive).

With `CNc1nc2n(CCO)c(-c3ccccc3)c(-c3ccccc3)nc-2c(=O)n1`, the GI50 in the assay with 786-0, in the assay with A498, with CAKI-1, in the assay on CCRF-CEM, in the assay on COLO 205 and in the assay on DU-145 was > 50 µM (inactive) throughout. Moreover, the GI50 with HCT-15 is > 50 µM; with KM12, > 50 µM (inactive); in the assay on MDA-MB-435, > 50 µM (inactive); in the assay with Malme-3M it was > 50 µM (inactive); with NCI-H23, > 50 µM (inactive); with NCI/ADR-RES, > 50 µM (inactive). For the same compound, the GI50 in the assay on OVCAR-3 was 14.8 µM (inactive); in the assay with RXF 393 it was > 50 µM (inactive); in the assay on SF-268, > 50 µM (inactive); in the assay with SF-295, > 50 µM (inactive); in the assay with SW-620 it was > 50 µM (inactive); with U-251, > 50 µM (inactive). Besides, the GI50 with UO-31 was > 50 µM (inactive).

Take `C=C1CN(C2=NCCO2)C1`: the GI50 was > 100 µM (inactive) with 786-0; > 100 µM (inactive) in the assay with CAKI-1; > 100 µM (inactive) in the assay on CCRF-CEM; > 100 µM (inactive) with COLO 205; > 100 µM (inactive) with DU-145; > 100 µM with HCT-15. Further, the GI50 with HL-60, in the assay on KM12, in the assay with MDA-MB-435, in the assay with Malme-3M, in the assay with NCI-H23 and in the assay with NCI/ADR-RES was > 100 µM (inactive) each time. Besides, the GI50 in the assay on OVCAR-3, with RXF 393, with SF-268, in the assay with SF-295, in the assay on SW-620 and in the assay on UO-31 was > 100 µM (inactive) each time.

On to `O=C(NCCC(F)(F)C(F)(F)C(F)(F)C(F)(F)F)NC1OC(CO)C(O)C(O)C1O` (stereo not given), for which the GI50 in the assay with 786-0 was > 100 µM (inactive); in the assay with CAKI-1 it was > 100 µM (inactive); with CCRF-CEM, > 100 µM (inactive); in the assay with COLO 205 it was > 100 µM (inactive); in the assay on DU-145, > 100 µM (inactive); in the assay with HCT-15, > 100 µM. Besides, the GI50 with HL-60, in the assay with KM12, with MDA-MB-435, with Malme-3M, with NCI-H23 and in the assay with NCI/ADR-RES was > 100 µM (inactive) each time. Also, the GI50 in the assay with OVCAR-3, with RXF 393, with SF-268, with SF-295, with SW-620 and with U-251 was > 100 µM (inactive) throughout. For the same compound, in the assay on UO-31, the GI50 was > 100 µM (inactive).

Consider `N=C(N)NS(=O)(=O)c1ccc(NC(=O)c2ccc3nc4ccccc4c(N)c3c2)cc1`, for which the GI50 with 786-0 is > 100 µM (inactive); with CAKI-1 it was > 100 µM (inactive); with CCRF-CEM, > 100 µM (inactive); with COLO 205, > 100 µM (inactive); in the assay with DU-145, > 100 µM (inactive); with HCT-15 it was > 100 µM. The GI50 with HL-60 was > 100 µM (inactive); with KM12 it was 74.6 µM (inactive); in the assay with MDA-MB-435, > 100 µM (inactive); with Malme-3M it was > 100 µM (inactive); in the assay on NCI-H23 it was > 100 µM (inactive); in the assay on NCI/ADR-RES it was > 100 µM (inactive). The GI50 in the assay on OVCAR-3, with RXF 393, with SF-268, with SF-295, in the assay on SW-620 and in the assay on U-251 was > 100 µM (inactive) each time. For the same compound, the GI50 in the assay on UO-31 is > 100 µM (inactive).

For the compound `c1cncc(C(Nc2cccc3cccnc23)Nc2cccc3cccnc23)c1`, the GI50 was > 100 µM (inactive) in the assay with 786-0; 53 µM (inactive) with CAKI-1; 66.1 µM (inactive) in the assay on CCRF-CEM; > 100 µM (inactive) in the assay on COLO 205; > 100 µM (inactive) with DU-145; > 100 µM in the assay with HCT-15. In addition, the GI50 is 36.3 µM (inactive) with HL-60; > 100 µM (inactive) in the assay on KM12; > 100 µM (inactive) in the assay with MDA-MB-435; > 100 µM (inactive) in the assay on NCI-H23; > 100 µM (inactive) in the assay with NCI/ADR-RES; > 100 µM (inactive) in the assay with OVCAR-3. Further, the GI50 with RXF 393 was 77.3 µM (inactive); with SF-268, 50.5 µM (inactive); with SF-295, > 100 µM (inactive); in the assay with SW-620, > 100 µM (inactive); in the assay on U-251, > 100 µM (inactive); in the assay on UO-31, 83.8 µM (inactive).

With `CC(NC(=O)C(C)(C)NC(=O)C(CC(=O)OCc1ccccc1)NC(=O)OCc1ccccc1)C(N)=O` (stereo not given) (Cbz-Asp(OBn)-[Aib]-Ala-NH2; configuration not given here), the GI50 was > 100 µM (inactive) in the assay on 786-0; > 100 µM (inactive) with CAKI-1; > 100 µM (inactive) with CCRF-CEM; > 100 µM (inactive) in the assay with COLO 205; > 100 µM (inactive) with DU-145; > 100 µM in the assay with HCT-15. Moreover, the GI50 in the assay with HL-60, in the assay with KM12, with MDA-MB-435, in the assay on Malme-3M, in the assay with NCI-H23 and with NCI/ADR-RES was > 100 µM (inactive) each time. In addition, the GI50 was > 100 µM (inactive) in the assay with OVCAR-3; > 100 µM (inactive) in the assay on RXF 393; > 100 µM (inactive) in the assay with SF-268; 43 µM (inactive) in the assay with SF-295; > 100 µM (inactive) in the assay on SW-620; > 100 µM (inactive) in the assay on U-251. The GI50 with UO-31 is > 100 µM (inactive).

Regarding `CC1=C(C#N)S(=O)(=O)c2c(oc(C)c2C)N1`, the GI50 in the assay on 786-0 is > 100 µM (inactive); in the assay with A498 it was > 100 µM (inactive); in the assay on CAKI-1, > 100 µM (inactive); in the assay on DU-145, > 100 µM (inactive); in the assay on HCT-15, > 100 µM; in the assay with KM12 it was > 100 µM (inactive). The GI50 with MDA-MB-435, in the assay on Malme-3M, with NCI-H23, with NCI/ADR-RES, with OVCAR-3 and with SF-268 was > 100 µM (inactive) in each case. For the same compound, the GI50 in the assay on SF-295, in the assay on SW-620, with U-251 and in the assay on UO-31 was > 100 µM (inactive) each time.

Consider `O=c1[nH]c(=O)n(C2CC(O)C(CO)O2)cc1OCCCc1ccccc1` (stereo not given), for which the GI50 in the assay with 786-0 is > 100 µM (inactive); with CAKI-1 it was > 100 µM (inactive); in the assay on CCRF-CEM, > 100 µM (inactive); in the assay on COLO 205, > 100 µM (inactive); with DU-145 it was > 100 µM (inactive); in the assay with HCT-15 it was > 100 µM. The GI50 with HL-60, with KM12, with MDA-MB-435, in the assay with Malme-3M, with NCI-H23 and with NCI/ADR-RES was > 100 µM (inactive) in each case. Moreover, the GI50 in the assay on OVCAR-3, in the assay on RXF 393, in the assay on SF-268, with SF-295, with U-251 and in the assay with UO-31 was > 100 µM (inactive) each time.

For the compound `CCOC(=O)c1sc2nc(SC)nc3c2c1NCN3C1CC1`, the GI50 was 48.2 µM (inactive) in the assay with 786-0; > 100 µM (inactive) in the assay with A498; > 100 µM (inactive) in the assay with CAKI-1; > 100 µM (inactive) in the assay with CCRF-CEM; > 100 µM (inactive) in the assay with COLO 205; > 100 µM (inactive) in the assay with DU-145. Moreover, the GI50 was > 100 µM in the assay on HCT-15; > 100 µM (inactive) in the assay on KM12; > 100 µM (inactive) in the assay on MDA-MB-435; > 100 µM (inactive) in the assay with Malme-3M; > 100 µM (inactive) with NCI-H23; > 100 µM (inactive) with NCI/ADR-RES. For the same compound, the GI50 with OVCAR-3, in the assay with RXF 393, in the assay on SF-268, in the assay with SF-295, in the assay with U-251 and in the assay with UO-31 was > 100 µM (inactive) each time.

Regarding `c1ccc2c(c1)c1c(n2CCOCCN2CCCCC2)CCCC1`, the GI50 with 786-0 was 13.4 µM (inactive); in the assay on CCRF-CEM it was 12.4 µM (inactive); in the assay with COLO 205 it was 11.1 µM (inactive); in the assay with DU-145 it was 17.1 µM (inactive); in the assay on HCT-15, 14.1 µM; in the assay on HL-60 it was 2.37 µM (inactive). Also, the GI50 with KM12 was 13 µM (inactive); in the assay with MDA-MB-435, 12.8 µM (inactive); in the assay on Malme-3M it was 13.1 µM (inactive); with NCI-H23 it was 15.2 µM (inactive); in the assay with NCI/ADR-RES, 10.1 µM (inactive); with OVCAR-3, 9.75 µM (inactive). Moreover, the GI50 in the assay on SF-268 is 16.9 µM (inactive); with SF-295 it was 16.2 µM (inactive); in the assay with SW-620, 17.3 µM (inactive); with U-251, 16.9 µM (inactive); in the assay on UO-31, 11.1 µM (inactive).
